Calls of active or inactive are those of the source. No cut-off for these calls is given here.
What was measured:
5'-nucleotidase [1] = biological target: T1, 5'-nucleotidase (Rattus norvegicus, UniProt P21588); test: Inhibition of rat Ecto-5'-nucleotidase transfected in COS7 cells preincubated for 10 mins followed by AMP addition measured after 10 mins; assay type: cell-based, COS-7
T1 sequence (P21588 whole entry): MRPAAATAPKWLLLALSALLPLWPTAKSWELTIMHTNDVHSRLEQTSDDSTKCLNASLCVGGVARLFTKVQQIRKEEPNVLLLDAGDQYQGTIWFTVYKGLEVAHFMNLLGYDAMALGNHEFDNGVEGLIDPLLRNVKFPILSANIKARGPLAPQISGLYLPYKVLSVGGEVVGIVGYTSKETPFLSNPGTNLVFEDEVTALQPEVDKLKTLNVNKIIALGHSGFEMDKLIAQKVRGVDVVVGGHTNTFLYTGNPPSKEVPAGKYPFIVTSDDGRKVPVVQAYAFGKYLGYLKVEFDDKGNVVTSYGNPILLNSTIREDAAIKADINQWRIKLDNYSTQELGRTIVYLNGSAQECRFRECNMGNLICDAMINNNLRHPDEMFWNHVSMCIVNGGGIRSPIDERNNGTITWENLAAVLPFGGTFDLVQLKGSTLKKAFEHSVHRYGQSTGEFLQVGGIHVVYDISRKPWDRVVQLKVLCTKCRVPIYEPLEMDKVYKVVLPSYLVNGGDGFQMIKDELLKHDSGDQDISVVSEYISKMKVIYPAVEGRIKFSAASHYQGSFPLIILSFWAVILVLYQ

[2] = biological target: Intestinal-type alkaline phosphatase (Bos taurus, UniProt P19111); test: Inhibition of calf intestinal alkaline phosphatase preincubated for 3 to 5 mins followed by CDP-star substrate addition measured after 15 mins by luminescence assay
Chain of Intestinal-type alkaline phosphatase (P19111 whole entry): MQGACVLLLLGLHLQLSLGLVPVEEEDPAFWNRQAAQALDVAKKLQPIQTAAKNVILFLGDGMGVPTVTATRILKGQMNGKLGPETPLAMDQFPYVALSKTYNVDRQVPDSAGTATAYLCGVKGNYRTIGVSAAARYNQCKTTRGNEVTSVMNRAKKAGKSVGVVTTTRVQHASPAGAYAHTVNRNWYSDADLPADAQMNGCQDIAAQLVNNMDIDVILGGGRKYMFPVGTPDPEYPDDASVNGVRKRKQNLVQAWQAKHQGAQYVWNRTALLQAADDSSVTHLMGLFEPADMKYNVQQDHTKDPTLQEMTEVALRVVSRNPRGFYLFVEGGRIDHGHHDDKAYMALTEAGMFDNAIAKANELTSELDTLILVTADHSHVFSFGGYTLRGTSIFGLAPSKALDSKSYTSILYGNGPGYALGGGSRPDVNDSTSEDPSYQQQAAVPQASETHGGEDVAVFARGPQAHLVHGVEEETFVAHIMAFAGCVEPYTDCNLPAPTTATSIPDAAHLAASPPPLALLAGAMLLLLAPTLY

5'-nucleotidase [3] = biological target: T2, 5'-nucleotidase (Homo sapiens, UniProt P21589); test: Inhibition of human Ecto-5'-nucleotidase transfected in COS7 cells preincubated for 10 mins followed by AMP addition measured after 10 mins; assay type: cell-based, COS-7
T2 sequence (P21589 whole entry): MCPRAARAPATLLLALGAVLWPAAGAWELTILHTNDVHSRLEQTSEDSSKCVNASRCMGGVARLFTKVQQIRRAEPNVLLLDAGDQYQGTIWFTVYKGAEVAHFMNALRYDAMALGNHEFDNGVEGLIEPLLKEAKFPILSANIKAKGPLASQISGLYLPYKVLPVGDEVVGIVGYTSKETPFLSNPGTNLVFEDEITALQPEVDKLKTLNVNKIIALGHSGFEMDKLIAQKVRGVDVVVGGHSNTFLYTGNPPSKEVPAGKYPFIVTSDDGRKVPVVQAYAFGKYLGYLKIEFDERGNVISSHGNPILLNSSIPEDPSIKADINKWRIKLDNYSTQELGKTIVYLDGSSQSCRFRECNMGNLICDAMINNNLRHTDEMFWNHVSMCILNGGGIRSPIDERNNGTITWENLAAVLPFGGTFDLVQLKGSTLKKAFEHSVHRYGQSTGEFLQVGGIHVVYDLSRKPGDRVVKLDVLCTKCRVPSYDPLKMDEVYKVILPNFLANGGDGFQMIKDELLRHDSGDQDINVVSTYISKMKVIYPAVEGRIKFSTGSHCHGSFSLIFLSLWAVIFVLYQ

[4] = biological target: T3, Alkaline phosphatase, tissue-nonspecific isozyme (Bos taurus, UniProt P09487); test: Inhibition of bovine tissue non-specific alkaline phosphatase preincubated for 3 to 5 mins followed by CDP-star substrate addition measured after 15 mins by luminescence assay
T3 sequence (P09487 whole entry): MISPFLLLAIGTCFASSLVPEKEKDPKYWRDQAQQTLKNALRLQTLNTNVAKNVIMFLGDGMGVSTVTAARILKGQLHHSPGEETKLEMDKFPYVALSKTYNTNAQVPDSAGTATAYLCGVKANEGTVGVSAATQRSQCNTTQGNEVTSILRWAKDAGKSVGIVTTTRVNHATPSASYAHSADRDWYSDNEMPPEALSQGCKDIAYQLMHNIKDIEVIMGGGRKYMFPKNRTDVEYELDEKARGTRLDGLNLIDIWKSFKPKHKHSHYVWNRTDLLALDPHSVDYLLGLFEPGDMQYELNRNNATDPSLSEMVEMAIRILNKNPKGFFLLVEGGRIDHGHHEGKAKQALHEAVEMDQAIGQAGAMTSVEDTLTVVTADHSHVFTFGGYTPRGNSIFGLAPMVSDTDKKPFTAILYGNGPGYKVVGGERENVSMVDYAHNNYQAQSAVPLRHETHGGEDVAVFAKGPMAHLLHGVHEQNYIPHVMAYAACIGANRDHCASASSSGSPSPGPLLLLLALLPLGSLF

[5] = biological target: T4, 5'-nucleotidase (Rattus norvegicus) (UniProt P21588); test: Inhibition of rat Ecto-5'-nucleotidase transfected in COS7 cells at 1 mM preincubated for 10 mins followed by AMP addition measured after 10 mins; assay type: cell-based; conditions: COS-7
T4 sequence (whole entry): T1 sequence (P21588 whole entry)

5'-nucleotidase [6] = biological target: T2, 5'-nucleotidase; test: Inhibition of human Ecto-5'-nucleotidase transfected in COS7 cells at 1 mM preincubated for 10 mins followed by AMP addition measured after 10 mins; assay type: cell-based; conditions: COS-7
5'-nucleotidase [7] = biological target: T2, 5'-nucleotidase; conditions: COS-7, 0.5 to 2 uM
[8] = biological target: T5, Alkaline phosphatase, tissue-nonspecific isozyme (Bos taurus) (UniProt P09487); test: Competitive inhibition of bovine tissue non-specific alkaline phosphatase at 0.5 to 2 uM preincubated for 3 to 5 mins followed by CDP-star substrate addition measured after 15 mins by double-reciprocal plot analysis
T5 sequence (whole entry): T3 sequence (P09487 whole entry)

Bos taurus = organism: Bos taurus; test: Selectivity ratio of Ki for calf intestinal alkaline phosphatase to Ki for bovine tissue non-specific alkaline phosphatase
[9] = biological target: T5, Alkaline phosphatase, tissue-nonspecific isozyme (Bos taurus); test: Inhibition of bovine tissue non-specific alkaline phosphatase at 0.2 mM preincubated for 3 to 5 mins followed by CDP-star substrate addition measured after 15 mins by luminescence assay
[10] = biological target: Intestinal-type alkaline phosphatase (Bos taurus) (UniProt P19111); conditions: 0.5 to 2 uM
Chain of Intestinal-type alkaline phosphatase (Bos taurus) (P19111 20-506 limits assumed): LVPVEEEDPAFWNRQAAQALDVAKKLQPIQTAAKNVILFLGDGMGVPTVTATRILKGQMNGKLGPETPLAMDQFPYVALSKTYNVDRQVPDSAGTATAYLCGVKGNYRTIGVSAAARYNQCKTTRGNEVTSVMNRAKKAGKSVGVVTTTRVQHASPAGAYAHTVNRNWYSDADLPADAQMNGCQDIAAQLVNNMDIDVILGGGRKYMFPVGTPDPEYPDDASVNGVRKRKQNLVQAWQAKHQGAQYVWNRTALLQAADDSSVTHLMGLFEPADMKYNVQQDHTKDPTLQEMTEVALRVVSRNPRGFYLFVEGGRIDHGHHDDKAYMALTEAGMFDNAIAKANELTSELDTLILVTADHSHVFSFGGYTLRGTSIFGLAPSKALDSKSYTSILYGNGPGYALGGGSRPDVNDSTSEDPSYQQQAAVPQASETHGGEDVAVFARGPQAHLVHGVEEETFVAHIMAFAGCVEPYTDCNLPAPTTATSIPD
Description: Competitive inhibition of calf intestinal alkaline phosphatase at 0.5 to 2 uM preincubated for 3 to 5 mins followed by CDP-star substrate addition measured after 15 mins by double-reciprocal plot analysis

Compound	IC50 (5'-nucleotidase [1]) [nM]	Ki (5'-nucleotidase [1]) [nM]	IC50 [2] [nM]	Ki [2] [nM]	IC50 (5'-nucleotidase [3]) [nM]	Ki (5'-nucleotidase [3]) [nM]	IC50 [4] [nM]	Ki [4] [nM]	inhibition [5] [%]	other results
COC1Oc2c(Cl)cc(Cl)cc2C(=O)/C1=C\Nc1cccc(S(N)(=O)=O)c1 (racemic)	4810	229	8340	3590	970	46	3520	1490		
O=c1c(C2Nc3ccccc3S(=O)(=O)N2)coc2ccc(F)cc12 (racemic)	2710	129								
CC(C)OC1Oc2ccccc2C(=O)/C1=C\Nc1ccc(S(N)(=O)=O)cc1 (racemic)	540	26	527	220	1170	53	47100	20100		
CCOC1Oc2ccccc2C(=O)/C1=C\Nc1cccc(S(N)(=O)=O)c1 (racemic)									30.1	
COC1Oc2c(Cl)cc(Cl)cc2C(=O)/C1=C\Nc1ccc(S(N)(=O)=O)cc1 (racemic)	10100	472	3250	1380	2920	138	16200	6190		
COC1Oc2c(Cl)cc(Cl)cc2C(=O)/C1=C\Nc1ccccc1S(N)(=O)=O (racemic)	1840	87	9870	4210	880	42	5360	2280		
CCOC1Oc2ccc(CC)cc2C(=O)/C1=C\Nc1ccc(S(N)(=O)=O)cc1 (racemic)	3730	178								
O=c1c(C2Nc3ccccc3S(=O)(=O)N2)coc2ccccc12 (racemic)	3810	181								
COC1Oc2ccc(C)cc2C(=O)/C1=C\Nc1ccc(S(N)(=O)=O)cc1 (racemic)			3130	1340			8170	3490	42.9	inhibition (5'-nucleotidase [6]): 47%
CCOC1Oc2ccccc2C(=O)/C1=C\Nc1ccc(S(=O)(=O)Nc2ccccn2)cc1 (racemic)	15200	712								
COC1Oc2ccc(F)cc2C(=O)/C1=C\Nc1ccc(S(N)(=O)=O)cc1 (racemic)			68600	29100			17600	7510	46.4	inhibition (5'-nucleotidase [6]): 46.8%
CCOC1Oc2ccc(CC)cc2C(=O)/C1=C\Nc1cccc(S(N)(=O)=O)c1 (racemic)									40.5	
COC1Oc2ccc(F)cc2C(=O)/C1=C\Nc1cccc(S(N)(=O)=O)c1 (racemic)			13500	5660			1460	623	46	inhibition (5'-nucleotidase [6]): 44.4%
CCOC1Oc2ccc(F)cc2C(=O)/C1=C\Nc1cccc(S(N)(=O)=O)c1 (racemic)	990	47								
CC(C)OC1Oc2ccccc2C(=O)/C1=C\Nc1cccc(S(N)(=O)=O)c1 (racemic)			17900	7660	287	14	111000	47500	25.7	inhibition (5'-nucleotidase [7]): Active
CCOC1Oc2ccccc2C(=O)/C1=C\Nc1ccc(S(=O)(=O)Nc2ccc(OC)nn2)cc1 (racemic)	1090	51.7								
CCOC1Oc2c(Br)cc(Br)cc2C(=O)/C1=C\Nc1ccccc1S(N)(=O)=O (racemic)	40100	1910								
COC1Oc2ccccc2C(=O)/C1=C\Nc1ccccc1S(N)(=O)=O (racemic)	2390	114	7810	3340	1910	91	715000	305000		
COC1Oc2ccc(C)cc2C(=O)/C1=C\Nc1ccccc1S(N)(=O)=O (racemic)			5060	2180			180	78	47.8	inhibition [8]: Active; inhibition (5'-nucleotidase [6]): 39.1%; Ratio Ki (Bos taurus): 28

Compound	IC50 (5'-nucleotidase [1]) [nM]	Ki (5'-nucleotidase [1]) [nM]	IC50 [2] [nM]	Ki [2] [nM]	IC50 (5'-nucleotidase [3]) [nM]	Ki (5'-nucleotidase [3]) [nM]	IC50 [4] [nM]	Ki [4] [nM]	inhibition [5] [%]	other results
CCCCOC1Oc2ccccc2C(=O)/C1=C\Nc1ccc(S(N)(=O)=O)cc1 (racemic)			48300	20600	1320	63	4570	1950	6.66	
CCOC1Oc2ccc(F)cc2C(=O)/C1=C\Nc1ccc(S(N)(=O)=O)cc1 (racemic)	2130	101								
COC1Oc2ccccc2C(=O)/C1=C\Nc1cccc(S(N)(=O)=O)c1 (racemic)	2810	134	39800	16900	380	18				inhibition [9]: 32.1%
COC1Oc2ccccc2C(=O)/C1=C\Nc1ccc(S(N)(=O)=O)cc1 (racemic)			565	240	7110	338	171000	72900	27.7	inhibition [10]: Active
CCOC1Oc2ccccc2C(=O)/C1=C\Nc1ccc(S(N)(=O)=O)cc1 (racemic)									39.5	
COC1Oc2ccc(F)cc2C(=O)/C1=C\Nc1ccccc1S(N)(=O)=O (racemic)			10200	4260			17100	7290	45.4	inhibition (5'-nucleotidase [6]): 48.2%
CCOC1Oc2ccc(CC)cc2C(=O)/C1=C\Nc1ccccc1S(N)(=O)=O (racemic)	101	4.7								
COC1Oc2ccc(C)cc2C(=O)/C1=C\Nc1cccc(S(N)(=O)=O)c1 (racemic)			6560	2770			110000	47200	47.5	inhibition (5'-nucleotidase [6]): 44.5%
COC1Oc2ccc(Cl)cc2C(=O)/C1=C\Nc1ccccc1S(N)(=O)=O (racemic)	1310	62	2320	992	1350	64				inhibition [9]: 29.9%
CCOC1Oc2ccccc2C(=O)/C1=C\Nc1ccc(S(=O)(=O)Nc2nnc(C)s2)cc1 (racemic)									48	
O=c1c(C2Nc3ccccc3S(=O)(=O)N2)coc2ccc(Br)cc12 (racemic)									20.3	
CCOC1Oc2ccc(Br)cc2C(=O)/C1=C\Nc1ccc(S(N)(=O)=O)cc1 (racemic)									29.7	
CCOC1Oc2ccc(Br)cc2C(=O)/C1=C\Nc1cccc(S(N)(=O)=O)c1 (racemic)	6130	292								
CCOC1Oc2ccccc2C(=O)/C1=C\Nc1ccc(S(=O)(=O)Nc2cc(OC)nc(OC)n2)cc1 (racemic)									28.2	
COC1Oc2ccc(Cl)cc2C(=O)/C1=C\Nc1cccc(S(N)(=O)=O)c1 (racemic)	2380	113	31900	13600	560	27				inhibition [9]: 34.2%
CCOC1Oc2ccc(Br)cc2C(=O)/C1=C\Nc1ccc(S(=O)(=O)Nc2ccccn2)cc1 (racemic)									23.6	
COC1Oc2ccc(Cl)cc2C(=O)/C1=C\Nc1ccc(S(N)(=O)=O)cc1 (racemic)	1710	81	4430	1890	1660	79				inhibition [9]: 20.9%
CCCCOC1Oc2ccccc2C(=O)/C1=C\Nc1cccc(S(N)(=O)=O)c1 (racemic)	3610	172	2290	978	377	18	77800	33200		
